In ChEMBL document CHEMBL1201862, “PubChem BioAssay data set” (2004):
The source made the active and inactive calls.

Legend:
[1] = molecular target: T1, Sentrin-specific protease 7 (Homo sapiens, UniProt Q9BQF6); assay: SENP7 protease inhibitors, SAR follow-up, biochemical, luminescence, set 2 (AID 588600); format: functional
T1 sequence (Q9BQF6 whole entry): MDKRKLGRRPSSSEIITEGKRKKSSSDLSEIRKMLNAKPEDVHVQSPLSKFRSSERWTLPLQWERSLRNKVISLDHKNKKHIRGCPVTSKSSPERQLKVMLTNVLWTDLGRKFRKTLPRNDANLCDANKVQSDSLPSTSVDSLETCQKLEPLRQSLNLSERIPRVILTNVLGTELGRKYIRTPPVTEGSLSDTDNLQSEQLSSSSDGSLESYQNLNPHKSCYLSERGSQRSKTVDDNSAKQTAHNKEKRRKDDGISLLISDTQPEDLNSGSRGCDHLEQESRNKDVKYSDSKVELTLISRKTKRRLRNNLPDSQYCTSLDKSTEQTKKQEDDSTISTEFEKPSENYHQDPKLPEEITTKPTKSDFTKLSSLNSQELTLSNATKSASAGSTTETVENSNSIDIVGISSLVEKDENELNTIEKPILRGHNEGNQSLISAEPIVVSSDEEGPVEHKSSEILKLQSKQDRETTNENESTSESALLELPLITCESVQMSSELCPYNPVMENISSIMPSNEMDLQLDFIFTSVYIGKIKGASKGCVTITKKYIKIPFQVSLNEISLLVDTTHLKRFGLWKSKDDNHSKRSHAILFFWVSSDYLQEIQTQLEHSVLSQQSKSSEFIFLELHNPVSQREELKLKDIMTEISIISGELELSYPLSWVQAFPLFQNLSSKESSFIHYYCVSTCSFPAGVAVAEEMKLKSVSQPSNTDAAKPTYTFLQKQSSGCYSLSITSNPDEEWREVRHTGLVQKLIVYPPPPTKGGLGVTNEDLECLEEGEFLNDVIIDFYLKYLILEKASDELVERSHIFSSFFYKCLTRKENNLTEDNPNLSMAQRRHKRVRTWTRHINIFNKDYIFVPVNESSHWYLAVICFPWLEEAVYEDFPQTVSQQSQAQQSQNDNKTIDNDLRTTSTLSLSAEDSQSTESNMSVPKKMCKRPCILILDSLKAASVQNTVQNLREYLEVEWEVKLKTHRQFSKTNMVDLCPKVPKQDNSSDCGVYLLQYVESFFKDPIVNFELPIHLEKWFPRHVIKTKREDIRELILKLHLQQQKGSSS

[2] = molecular target: T2, Sentrin-specific protease 8 (Homo sapiens, UniProt Q96LD8); assay: SENP8 protease inhibitors, SAR follow-up, biochemical, luminescence, set 2 (AID 588601); format: functional
T2 sequence (Q96LD8 whole entry): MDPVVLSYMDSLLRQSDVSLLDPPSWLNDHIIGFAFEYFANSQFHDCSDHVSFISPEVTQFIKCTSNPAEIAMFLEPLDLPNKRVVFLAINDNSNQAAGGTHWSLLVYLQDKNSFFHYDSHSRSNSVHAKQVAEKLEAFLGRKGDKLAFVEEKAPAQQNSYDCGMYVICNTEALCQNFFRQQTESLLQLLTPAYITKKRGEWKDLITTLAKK

[3] = molecular target: T3, Caspase-3 (Homo sapiens, UniProt P42574); assay: caspase-3 inhibitors as off-family protease, SAR follow-up, selectivity assay for SENP protease inhibitor project, biochemical, luminescence, set 2 (AID 588599); format: functional
T3 sequence (P42574 whole entry): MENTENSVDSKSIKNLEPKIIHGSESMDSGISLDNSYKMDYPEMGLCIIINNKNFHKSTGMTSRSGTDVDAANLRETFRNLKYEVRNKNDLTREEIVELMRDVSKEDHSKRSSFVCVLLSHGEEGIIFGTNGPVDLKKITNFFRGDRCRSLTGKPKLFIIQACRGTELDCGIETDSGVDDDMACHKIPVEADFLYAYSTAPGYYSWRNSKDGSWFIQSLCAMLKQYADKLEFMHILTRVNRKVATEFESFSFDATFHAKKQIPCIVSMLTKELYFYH

[4] = molecular target: T4, Sentrin-specific protease 6 (Homo sapiens, UniProt Q9GZR1); assay: SENP6 protease inhibitors, SAR follow-up, biochemical, luminescence, set 2 (AID 588598); format: functional
T4 sequence (Q9GZR1 whole entry): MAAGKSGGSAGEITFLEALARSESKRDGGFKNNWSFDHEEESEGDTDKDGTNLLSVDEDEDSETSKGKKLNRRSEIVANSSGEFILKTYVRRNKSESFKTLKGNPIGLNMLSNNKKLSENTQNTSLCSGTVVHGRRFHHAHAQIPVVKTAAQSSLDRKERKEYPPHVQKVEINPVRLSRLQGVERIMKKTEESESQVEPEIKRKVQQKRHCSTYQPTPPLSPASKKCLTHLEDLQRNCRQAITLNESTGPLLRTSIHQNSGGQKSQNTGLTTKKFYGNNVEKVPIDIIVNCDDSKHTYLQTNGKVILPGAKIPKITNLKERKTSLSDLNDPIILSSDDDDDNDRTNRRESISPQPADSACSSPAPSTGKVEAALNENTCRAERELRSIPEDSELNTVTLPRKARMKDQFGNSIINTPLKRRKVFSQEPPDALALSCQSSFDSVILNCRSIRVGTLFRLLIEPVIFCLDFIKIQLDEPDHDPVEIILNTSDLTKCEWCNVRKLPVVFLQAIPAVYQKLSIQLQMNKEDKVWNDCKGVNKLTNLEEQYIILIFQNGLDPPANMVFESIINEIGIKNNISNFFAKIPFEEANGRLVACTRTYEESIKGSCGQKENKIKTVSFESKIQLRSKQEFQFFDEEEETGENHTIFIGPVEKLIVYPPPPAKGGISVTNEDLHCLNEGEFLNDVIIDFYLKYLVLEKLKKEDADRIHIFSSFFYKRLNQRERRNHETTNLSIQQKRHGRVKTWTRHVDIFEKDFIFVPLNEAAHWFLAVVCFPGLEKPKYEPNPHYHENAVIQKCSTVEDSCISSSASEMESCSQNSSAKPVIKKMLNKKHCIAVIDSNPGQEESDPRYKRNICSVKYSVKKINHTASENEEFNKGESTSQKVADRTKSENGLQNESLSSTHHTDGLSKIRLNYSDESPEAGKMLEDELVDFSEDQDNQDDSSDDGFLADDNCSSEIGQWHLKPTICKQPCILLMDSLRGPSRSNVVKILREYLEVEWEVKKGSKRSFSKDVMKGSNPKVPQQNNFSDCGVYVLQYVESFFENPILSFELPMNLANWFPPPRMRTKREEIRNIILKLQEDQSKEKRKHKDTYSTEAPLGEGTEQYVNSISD

[5] = molecular target: Vascular endothelial growth factor receptor 2 (Homo sapiens, UniProt P35968); format: functional
Chain of Vascular endothelial growth factor receptor 2 (P35968 whole entry): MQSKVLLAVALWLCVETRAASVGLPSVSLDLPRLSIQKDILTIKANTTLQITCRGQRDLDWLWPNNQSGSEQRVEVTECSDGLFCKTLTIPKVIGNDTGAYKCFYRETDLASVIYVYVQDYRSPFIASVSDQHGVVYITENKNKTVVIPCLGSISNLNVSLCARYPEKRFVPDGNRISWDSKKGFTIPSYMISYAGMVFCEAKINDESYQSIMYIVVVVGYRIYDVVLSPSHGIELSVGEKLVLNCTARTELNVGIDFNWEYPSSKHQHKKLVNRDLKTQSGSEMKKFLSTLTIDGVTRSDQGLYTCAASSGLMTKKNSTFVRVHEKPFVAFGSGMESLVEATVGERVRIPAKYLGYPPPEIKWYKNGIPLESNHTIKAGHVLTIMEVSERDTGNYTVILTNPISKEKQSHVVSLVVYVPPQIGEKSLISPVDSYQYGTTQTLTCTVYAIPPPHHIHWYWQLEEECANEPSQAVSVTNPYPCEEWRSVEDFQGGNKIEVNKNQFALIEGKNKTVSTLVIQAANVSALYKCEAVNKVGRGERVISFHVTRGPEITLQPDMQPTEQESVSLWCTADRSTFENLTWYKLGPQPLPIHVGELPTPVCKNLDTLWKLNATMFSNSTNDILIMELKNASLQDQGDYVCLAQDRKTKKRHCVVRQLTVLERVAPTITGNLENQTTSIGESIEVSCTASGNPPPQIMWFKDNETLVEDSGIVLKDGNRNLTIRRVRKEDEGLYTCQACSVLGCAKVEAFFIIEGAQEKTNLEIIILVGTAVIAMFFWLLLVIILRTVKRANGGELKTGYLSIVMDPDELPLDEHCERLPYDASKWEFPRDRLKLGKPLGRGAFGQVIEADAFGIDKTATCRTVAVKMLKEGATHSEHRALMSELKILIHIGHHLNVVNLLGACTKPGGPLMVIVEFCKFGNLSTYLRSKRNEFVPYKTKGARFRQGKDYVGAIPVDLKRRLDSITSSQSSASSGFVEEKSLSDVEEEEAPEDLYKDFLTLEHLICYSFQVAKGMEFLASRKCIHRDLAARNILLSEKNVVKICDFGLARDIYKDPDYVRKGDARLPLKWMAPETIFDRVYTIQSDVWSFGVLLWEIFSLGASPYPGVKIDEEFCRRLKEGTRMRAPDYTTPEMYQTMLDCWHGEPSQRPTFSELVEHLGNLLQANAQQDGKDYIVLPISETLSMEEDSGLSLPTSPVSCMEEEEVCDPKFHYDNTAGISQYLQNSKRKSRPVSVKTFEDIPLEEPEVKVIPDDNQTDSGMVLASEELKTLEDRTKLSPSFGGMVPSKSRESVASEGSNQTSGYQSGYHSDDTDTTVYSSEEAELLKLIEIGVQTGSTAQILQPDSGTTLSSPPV

[6] = molecular target: Aurora kinase B (Homo sapiens, UniProt Q96GD4); format: functional
Chain of Aurora kinase B (Q96GD4 whole entry): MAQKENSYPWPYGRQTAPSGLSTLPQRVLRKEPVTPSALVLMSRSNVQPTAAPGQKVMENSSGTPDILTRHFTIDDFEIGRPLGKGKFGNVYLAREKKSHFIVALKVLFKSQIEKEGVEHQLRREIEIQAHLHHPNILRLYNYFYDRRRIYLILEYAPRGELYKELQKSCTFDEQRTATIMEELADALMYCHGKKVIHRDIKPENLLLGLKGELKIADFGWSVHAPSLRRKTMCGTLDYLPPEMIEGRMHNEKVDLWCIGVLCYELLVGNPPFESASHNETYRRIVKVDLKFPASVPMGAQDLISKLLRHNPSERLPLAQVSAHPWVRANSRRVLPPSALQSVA

[7] = molecular target: T5, Neuropeptide Y receptor type 1 (Homo sapiens, UniProt P25929); format: functional;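 also: HEK293 cells with a CNG channel challenged with NPY then isoproterenol; potency as antagonist that reverses NPY suppression of cAMP signal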
T5 sequence (P25929 whole entry): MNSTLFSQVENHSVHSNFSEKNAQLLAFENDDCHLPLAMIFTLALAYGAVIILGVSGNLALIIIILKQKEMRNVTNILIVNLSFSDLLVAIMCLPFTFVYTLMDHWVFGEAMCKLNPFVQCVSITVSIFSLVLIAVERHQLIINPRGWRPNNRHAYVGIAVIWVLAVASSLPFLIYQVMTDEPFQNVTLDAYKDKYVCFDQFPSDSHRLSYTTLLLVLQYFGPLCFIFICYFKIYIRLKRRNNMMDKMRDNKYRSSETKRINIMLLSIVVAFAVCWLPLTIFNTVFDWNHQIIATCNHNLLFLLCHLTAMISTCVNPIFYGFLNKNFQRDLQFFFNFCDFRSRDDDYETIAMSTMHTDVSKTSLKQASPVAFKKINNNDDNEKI

[8] = molecular target: T6, High affinity choline transporter 1 (Homo sapiens, UniProt Q9GZV3); assay: CHT activators, dose response, cell-based, 10-point CRC, membrane potential dye (AID 602376); format: functional
T6 sequence (Q9GZV3 whole entry): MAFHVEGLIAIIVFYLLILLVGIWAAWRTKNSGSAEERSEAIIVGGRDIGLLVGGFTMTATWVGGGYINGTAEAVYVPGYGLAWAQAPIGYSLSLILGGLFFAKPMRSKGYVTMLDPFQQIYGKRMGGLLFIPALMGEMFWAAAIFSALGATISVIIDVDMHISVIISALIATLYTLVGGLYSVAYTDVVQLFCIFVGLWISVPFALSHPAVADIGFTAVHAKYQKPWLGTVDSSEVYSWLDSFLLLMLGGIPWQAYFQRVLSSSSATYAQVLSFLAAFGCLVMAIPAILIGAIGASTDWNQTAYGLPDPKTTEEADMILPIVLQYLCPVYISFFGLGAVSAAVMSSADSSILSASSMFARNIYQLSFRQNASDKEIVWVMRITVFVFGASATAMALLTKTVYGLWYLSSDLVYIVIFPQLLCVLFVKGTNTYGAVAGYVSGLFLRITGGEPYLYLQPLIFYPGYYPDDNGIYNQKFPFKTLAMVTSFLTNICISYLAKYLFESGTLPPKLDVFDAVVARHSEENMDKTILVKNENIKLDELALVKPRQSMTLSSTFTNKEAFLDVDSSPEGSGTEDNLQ

[9] = molecular target: T7, Neuropeptide Y receptor type 2 (Homo sapiens, UniProt P49146); format: functional, cell-based;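 also: HEK293 cells expressing the receptor and a CNG channel; stimulus was NPY near EC95 followed by isoproterenol to raise cAMP; antagonist potency measured as restoring cAMP signal that NPY suppresses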
T7 sequence (P49146 whole entry): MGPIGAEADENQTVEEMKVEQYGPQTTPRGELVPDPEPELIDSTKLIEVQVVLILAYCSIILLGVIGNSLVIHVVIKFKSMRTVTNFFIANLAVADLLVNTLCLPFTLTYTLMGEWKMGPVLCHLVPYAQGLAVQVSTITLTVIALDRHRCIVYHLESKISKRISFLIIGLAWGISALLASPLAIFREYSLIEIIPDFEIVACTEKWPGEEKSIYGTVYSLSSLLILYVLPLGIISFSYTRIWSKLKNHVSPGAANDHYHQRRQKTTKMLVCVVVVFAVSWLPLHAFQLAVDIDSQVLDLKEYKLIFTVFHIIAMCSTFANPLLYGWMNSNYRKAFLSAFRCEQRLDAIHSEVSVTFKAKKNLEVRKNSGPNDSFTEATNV

[10] = molecular target: Protein disulfide-isomerase (Homo sapiens, UniProt P07237); assay: PDI inhibitors, insulin aggregation turbidity, dose response, biochemical, absorbance, cherry-picked samples (AID 602350); format: functional
Chain of Protein disulfide-isomerase (P07237 whole entry): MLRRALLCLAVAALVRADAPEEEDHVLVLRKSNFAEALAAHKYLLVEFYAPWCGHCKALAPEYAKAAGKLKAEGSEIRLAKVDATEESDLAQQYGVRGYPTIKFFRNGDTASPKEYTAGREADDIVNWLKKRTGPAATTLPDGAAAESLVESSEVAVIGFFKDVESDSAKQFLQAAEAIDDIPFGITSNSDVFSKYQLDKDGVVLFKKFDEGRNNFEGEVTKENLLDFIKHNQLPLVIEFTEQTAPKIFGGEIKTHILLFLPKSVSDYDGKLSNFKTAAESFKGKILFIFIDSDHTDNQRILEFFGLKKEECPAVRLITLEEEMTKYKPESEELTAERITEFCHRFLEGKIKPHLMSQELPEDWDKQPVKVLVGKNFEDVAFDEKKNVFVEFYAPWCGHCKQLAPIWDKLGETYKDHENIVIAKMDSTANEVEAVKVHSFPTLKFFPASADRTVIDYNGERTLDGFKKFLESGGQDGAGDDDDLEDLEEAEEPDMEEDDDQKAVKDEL

[11] = molecular target: Cytochrome P450 2C9 (Homo sapiens, UniProt P11712)
Chain of Cytochrome P450 2C9 (P11712 whole entry): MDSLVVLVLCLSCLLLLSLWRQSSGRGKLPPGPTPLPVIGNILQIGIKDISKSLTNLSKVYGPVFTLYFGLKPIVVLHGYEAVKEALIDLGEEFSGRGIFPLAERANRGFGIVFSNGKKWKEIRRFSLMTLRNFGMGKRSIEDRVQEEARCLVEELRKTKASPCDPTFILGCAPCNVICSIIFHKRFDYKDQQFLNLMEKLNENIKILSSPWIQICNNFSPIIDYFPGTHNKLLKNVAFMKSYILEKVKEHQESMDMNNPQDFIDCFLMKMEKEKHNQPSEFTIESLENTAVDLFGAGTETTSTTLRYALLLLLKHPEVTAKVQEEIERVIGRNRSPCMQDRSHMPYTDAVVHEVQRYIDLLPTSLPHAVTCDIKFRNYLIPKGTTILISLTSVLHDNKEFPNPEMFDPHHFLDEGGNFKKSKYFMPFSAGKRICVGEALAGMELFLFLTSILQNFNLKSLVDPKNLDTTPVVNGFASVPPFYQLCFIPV

[12] = molecular target: Glycogen synthase kinase-3 alpha (Homo sapiens, UniProt P49840); assay: Inhibition of Human GSK-3 alpha Activity Measured in Biochemical System Using Microfluidics - 2063-06_Inhibitor_Dose_DryPowder_Activity_Set2. [Related pubchem assays (depositor defined):AID2709]
Chain of Glycogen synthase kinase-3 alpha (P49840 whole entry): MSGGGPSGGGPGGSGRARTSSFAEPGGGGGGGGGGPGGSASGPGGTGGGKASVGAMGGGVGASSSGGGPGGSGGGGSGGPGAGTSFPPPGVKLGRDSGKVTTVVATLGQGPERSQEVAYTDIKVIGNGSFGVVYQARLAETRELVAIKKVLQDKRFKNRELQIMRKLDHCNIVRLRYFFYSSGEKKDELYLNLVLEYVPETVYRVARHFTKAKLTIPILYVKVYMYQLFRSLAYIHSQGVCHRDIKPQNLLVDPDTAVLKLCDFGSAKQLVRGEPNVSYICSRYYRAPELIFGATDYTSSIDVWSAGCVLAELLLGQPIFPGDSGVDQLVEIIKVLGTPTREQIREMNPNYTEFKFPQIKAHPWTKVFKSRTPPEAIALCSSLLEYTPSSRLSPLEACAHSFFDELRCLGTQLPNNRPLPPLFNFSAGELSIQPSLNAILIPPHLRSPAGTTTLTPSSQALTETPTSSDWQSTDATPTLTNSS

[13] = molecular target: Cytochrome P450 2D6 (Homo sapiens, UniProt P10635);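 also: CYP2D6 member of a cytochrome P450 panel assay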
Chain of Cytochrome P450 2D6 (P10635 whole entry): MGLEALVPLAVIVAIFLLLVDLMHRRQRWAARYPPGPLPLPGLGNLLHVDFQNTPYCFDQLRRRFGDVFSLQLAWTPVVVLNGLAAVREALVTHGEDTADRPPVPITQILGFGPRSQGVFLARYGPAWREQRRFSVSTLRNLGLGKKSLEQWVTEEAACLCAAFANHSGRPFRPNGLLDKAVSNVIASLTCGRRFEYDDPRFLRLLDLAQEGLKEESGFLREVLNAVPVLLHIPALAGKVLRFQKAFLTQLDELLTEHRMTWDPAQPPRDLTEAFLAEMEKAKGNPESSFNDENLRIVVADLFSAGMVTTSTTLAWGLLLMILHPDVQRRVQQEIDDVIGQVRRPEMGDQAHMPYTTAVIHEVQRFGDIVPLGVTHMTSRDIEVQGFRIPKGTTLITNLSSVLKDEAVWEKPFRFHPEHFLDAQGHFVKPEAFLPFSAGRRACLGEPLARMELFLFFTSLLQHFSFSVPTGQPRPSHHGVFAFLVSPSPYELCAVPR

[14] = molecular target: Glycogen synthase kinase-3 beta (Homo sapiens, UniProt P49841); assay: Inhibition of Human GSK-3 beta Activity Measured in Biochemical System Using Microfluidics - 2063-05_Inhibitor_Dose_DryPowder_Activity_Set2. [Related pubchem assays (depositor defined):AID2709]
Chain of Glycogen synthase kinase-3 beta (P49841 whole entry): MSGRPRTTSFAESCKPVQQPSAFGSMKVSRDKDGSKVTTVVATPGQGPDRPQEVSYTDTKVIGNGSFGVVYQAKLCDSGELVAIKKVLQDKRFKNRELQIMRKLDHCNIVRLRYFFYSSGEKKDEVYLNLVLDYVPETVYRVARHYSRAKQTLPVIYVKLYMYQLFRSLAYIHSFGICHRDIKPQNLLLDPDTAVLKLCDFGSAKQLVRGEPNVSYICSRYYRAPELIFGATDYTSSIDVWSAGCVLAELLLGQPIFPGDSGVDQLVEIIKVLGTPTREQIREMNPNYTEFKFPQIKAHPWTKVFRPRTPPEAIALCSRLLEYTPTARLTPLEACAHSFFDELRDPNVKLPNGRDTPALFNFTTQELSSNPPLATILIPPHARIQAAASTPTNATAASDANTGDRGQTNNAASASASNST

Q: Which results are given for `Cc1ccc(-c2cc(CNC(=O)C(=O)c3c[nH]c4ccccc34)no2)cc1`?
A: IC50 [1]: > 99 µM (inactive); IC50 [2]: > 99 µM (inactive); IC50 [3]: > 99 µM (inactive); IC50 [4]: > 99 µM (inactive)

Q: `COc1ccc(-c2cc(-c3ccccc3)nc3ncnc(NC(=O)COCC(=O)O)c23)cc1` was tested. Which Ki [5] did it give?
A: The Ki was 1.26 µM (active).

Q: What about the Ki [6] of the same compound?
A: The Ki was 1.26 µM (active).

Q: What does the source list for `CCC1=Nc2ccc(Br)cc2C(c2ccccc2)N1CC(=O)OC` (centres undefined)?
A: IC50 [7]: 13.2 µM (not active); EC50 [8]: 14.3 µM (active); IC50 [9]: > 35 µM (not active)

Q: `C[C@@H]1O[C@@H](O[C@@H]2C(=O)c3c(O)cc(O)cc3O[C@H]2c2ccc(O)c(O)c2)[C@H](O)[C@H](O)[C@H]1O` was tested. Which AC50 [10] did it give?
A: The AC50 was 10.2 µM (active).

Q: How did the AC50 [11] turn out when `Cn1c(SCc2nnc(-c3ccc(F)cc3)o2)nnc1C1COc2ccccc2O1` (centres undefined) was run?
A: Its AC50 is “inconclusive”.

Q: What about the AC50 [12] of the same compound?
A: Its AC50 is 1.33 µM (active).

Q: What about the AC50 [13] of the same compound?
A: Its AC50 is 5.01 µM (inconclusive).

Q: What about the AC50 [14] of the same compound?
A: The AC50 was 0.7 µM (active).
